Measurements reported in PMC6244214, “Pd-Catalyzed microwave-assisted synthesis of phosphonated 13α-estrones as potential OATP2B1, 17β-HSD1 and/or STS inhibitors” (Beilstein Journal of Organic Chemistry, 2018).
Like-named read-outs stand apart in the source and are kept apart here.

How the values were obtained:
[1] = biological target: T1, 17β-hydroxysteroid dehydrogenase type 1 (17β-HSD1) (Homo sapiens, UniProt P14061); assay: 17β-HSD1 in vitro radiosubstrate incubation (estrone to 17β-estradiol conversion); type: biochemical; conditions: for remaining activity at 10 µM: read-out: 17β-HSD1 rel. conv. ± SD
T1 construct: from tissue; host or cells: human term placenta, cytosol
T1 sequence (P14061 1-328): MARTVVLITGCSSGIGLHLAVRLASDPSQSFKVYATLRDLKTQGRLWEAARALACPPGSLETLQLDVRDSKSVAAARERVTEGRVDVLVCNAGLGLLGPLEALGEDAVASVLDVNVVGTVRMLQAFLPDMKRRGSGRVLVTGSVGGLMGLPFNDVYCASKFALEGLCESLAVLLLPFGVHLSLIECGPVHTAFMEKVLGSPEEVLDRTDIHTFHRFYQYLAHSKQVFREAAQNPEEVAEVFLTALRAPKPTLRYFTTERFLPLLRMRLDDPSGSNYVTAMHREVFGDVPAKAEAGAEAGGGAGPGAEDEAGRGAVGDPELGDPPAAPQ
Protocol: (§1) The ability of the synthesized compounds 8–13 to inhibit activity of steroid sulfatase (STS) and 17β-hydroxysteroid dehydrogenase type 1 (17β-HSD1) was examined. In vitro radiosubstrate incubations were performed with adapted literature methodsS2–4 and human placenta served as source of the enzymes. Radiolabelled steroids were obtained from American Radiolabeled Chemicals (St. Louis, MO, USA). Other chemicals and solvents of analytical grade purity were purchased from Sigma (St. Louis, MO, USA), from Fluka (Buchs, Switzerland) or from Merck (Darmstadt, Germany).
(§2) 3.2. Preparation of enzyme sources
(§3) Human term placentae were collected immediately after delivery and stored frozen at −80 °C.
(§4) Tissue specimens were homogenized with an Ultra-Turrax in 0.1 M HEPES buffer solution […]
(§5) (pH 7.3) containing 1 mM EDTA and 1 mM dithiotreitol, and cytosol and microsomas were obtained with fractionated centrifugation. Application of the human tissue was approved by the institutional Human Investigation Review Board.
(§6) 3.3. Incubation procedures
(§7) Enzymatic incubations were carried out in the HEPES buffer medium at a final volume of 200
(§8) µl. The substrate was added to the incubate in 20 μl of a 25 % v/v propylene glycol in HEPES buffer solution, whereas test compounds were applied in 10 μl of dimethyl sulfoxide solution.
(§9) Incubations were performed at 37 °C and terminated by cooling and the addition of organic solvents of the subsequent extraction procedure. Control samples with no inhibitor and blank samples were incubated simultaneously. […]
In the 17β-HSD1 assays the cytosol was incubated using estrone (E1) substrate with [6,7-3H]estrone tracer and 0.1 mM NADPH cofactor excess. The incubation time was 2.5 min. The product 17β-estradiol (E2) was extracted with ethyl acetate and isolated by a TLC method.S5 […]
(§10) In the general procedure, incubations were performed as described. Concentrations of the substrates were 1.0 μM, and the test compounds were applied at 10 μM final concentration in the incubate. Relative conversions compared to non-inhibited controls (100%) were determined. The assays were performed in triplicate, and the mean value and the standard deviation (SD) were calculated.
(§11) In these cases, conversions were measured at 10–15 different concentrations in the appropriate interval between 0.001–50 μM. IC50 results were calculated by using unweighted iterative least squares logistic curve fitting by means of the “absolute IC50 calculation“ function of the GraphPad Prism 4.0 software (GraphPad Software, Inc., San Diego, CA, USA).

human OATP2B1 = biological target: T2, human OATP2B1 (Homo sapiens, UniProt O94956); assay: Cascade Blue uptake assay of OATP2B1 transport activity; type: cell-based
T2 construct: expressed in transfected cells; host or cells: A431 cells
T2 sequence (O94956 1-709): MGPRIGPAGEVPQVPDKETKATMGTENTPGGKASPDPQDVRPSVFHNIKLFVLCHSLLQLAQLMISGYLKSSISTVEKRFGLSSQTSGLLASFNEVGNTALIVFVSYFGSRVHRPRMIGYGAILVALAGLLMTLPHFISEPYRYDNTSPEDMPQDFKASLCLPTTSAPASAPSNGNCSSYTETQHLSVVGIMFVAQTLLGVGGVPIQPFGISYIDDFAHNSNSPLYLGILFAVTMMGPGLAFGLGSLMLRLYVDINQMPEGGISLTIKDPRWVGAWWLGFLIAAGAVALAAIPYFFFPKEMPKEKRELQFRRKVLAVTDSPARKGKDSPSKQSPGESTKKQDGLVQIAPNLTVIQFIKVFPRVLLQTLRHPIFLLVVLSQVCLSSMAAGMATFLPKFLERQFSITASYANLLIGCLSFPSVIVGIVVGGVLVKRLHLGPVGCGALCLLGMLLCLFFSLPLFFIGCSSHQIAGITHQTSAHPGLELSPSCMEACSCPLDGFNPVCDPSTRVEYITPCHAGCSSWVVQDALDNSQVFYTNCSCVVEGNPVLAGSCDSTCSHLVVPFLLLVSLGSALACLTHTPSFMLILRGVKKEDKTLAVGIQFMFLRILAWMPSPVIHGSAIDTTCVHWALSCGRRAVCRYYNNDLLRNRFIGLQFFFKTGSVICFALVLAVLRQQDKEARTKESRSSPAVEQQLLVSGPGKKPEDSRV
Protocol: CascadeBlue assay.S1 A431 cells ([…] in 200 μl) overexpressing human OATP2B1 or transfected with the vector control were seeded on 96 well plates 16 hours prior to the transport measurement. Transport reaction was performed as described in.S1 Briefly, after washing the cells 3-times with 200 µl 1 × phosphate buffered saline (PBS) the cells were preincubated with test compounds in final concentrations from 0.03 to 50 µM or dimethyl sulfoxide (used as a solvent for the test compounds and serving as non-treated control) for 5 minutes at 37 °C. The reaction was started with the addition of 50 µl Cascade Blue (resulting in final concentration of 10 µM) and the cells were further incubated at 37 °C for 30 minutes.
The reaction was stopped by the addition of 200 µl ice-cold 1 × PBS, and after 3 washing steps the fluorescence remaining in the cells was determined by Enspire fluorescent plate reader (Perkin Elmer) at 400 nm excitation and 419 nm emission wavelengths. Transport activity was determined by subtracting fluorescence in mock transfected cells. Kinetics of inhibition was determined by Hill fit using the Origin 8.6 software. […]

[2] = biological target: T3, human placental steroid sulfatase (STS) (Homo sapiens, UniProt P08842); assay: STS in vitro radiosubstrate incubation (estrone-3-sulfate to estrone conversion); type: biochemical; conditions: relative conversion vs non-inhibited control (100%); test compound 10 μM; substrate E1S 1.0 μM; placental microsomes; n = 3; read-out: STS rel. conv. ± SD
T3 construct: from tissue; host or cells: human term placenta, microsomes
T3 sequence (P08842 22-583): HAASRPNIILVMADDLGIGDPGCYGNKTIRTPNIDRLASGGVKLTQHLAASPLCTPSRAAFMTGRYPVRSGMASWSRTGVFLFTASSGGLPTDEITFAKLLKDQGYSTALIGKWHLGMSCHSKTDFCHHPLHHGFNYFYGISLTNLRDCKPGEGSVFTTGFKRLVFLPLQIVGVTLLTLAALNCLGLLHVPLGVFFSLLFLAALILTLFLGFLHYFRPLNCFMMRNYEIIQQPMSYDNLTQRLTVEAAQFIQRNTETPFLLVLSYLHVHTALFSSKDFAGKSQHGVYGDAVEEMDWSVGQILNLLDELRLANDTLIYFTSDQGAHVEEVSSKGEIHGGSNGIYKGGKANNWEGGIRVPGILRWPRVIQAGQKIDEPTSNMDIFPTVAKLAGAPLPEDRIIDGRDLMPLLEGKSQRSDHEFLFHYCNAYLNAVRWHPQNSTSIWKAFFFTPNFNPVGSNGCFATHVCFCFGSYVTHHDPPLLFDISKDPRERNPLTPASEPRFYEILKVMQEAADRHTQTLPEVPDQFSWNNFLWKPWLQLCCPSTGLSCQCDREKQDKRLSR
Protocol: as §1, §2, §3, §4, §5, §6, §7, §8
as §9, with “simultaneously. The radioactivity of the products formed was measured by means of liquid scintillation counting (LSC) and taken as indicator of the” for “simultaneously.”
STS assays were performed using microsoma suspension and estrone-3-sulfate (E1S) substrate with [6,7-3H]estrone-3-sulfate tracer with incubations lasting for 20 min. Reactions were terminated by the addition of equal volume of methanol, and the product estrone (E1) was extracted with toluene.S4 […]
as §10, §11

[3] = A431 cells overexpressing human OATP2B1, Cascade Blue 10 μM, 30 min, 37 °C, read-out: OATP2B1 IC50 ± SD

Row | SMILES | remaining activity at 10 µM [1] [%] | IC50 (human OATP2B1) [nM] | remaining activity at 10 µM [2] [%] | IC50 [1] [nM] | IC50 (human OATP2B1; [3]) [nM] | IC50 ([1]; human placental cytosol, estrone 1.0 μM, 0.1 mM NADPH, read-out: 17β-HSD1 IC50 ± SD) [nM]
1 | C[C@@]12CC[C@@H]3c4cc(P(=O)(c5ccccc5)c5ccccc5)c(OCc5ccccc5)cc4CC[C@H]3[C@@H]1CCC2=O [10b, (3-benzyloxy-13α-estra-1,3,5(10)-trien-17-on-2-yl)diphenylphosphine oxide] | 73 ± 3 | 1000 ± 100 | 85 ± 5 | – | – | –
2 | COc1cc2c(cc1P(=O)(c1ccccc1)c1ccccc1)[C@H]1CC[C@@]3(C)C(=O)CC[C@H]3[C@@H]1CC2 [8b, (3-methoxy-13α-estra-1,3,5(10)-trien-17-on-2-yl)diphenylphosphine oxide] | – | 1200 ± 100 | 80 ± 8 | 4100 ± 1100 | – | –
3 | CCOP(=O)(OCC)c1cc2c(cc1OCc1ccccc1)CC[C@@H]1[C@@H]2CC[C@@]2(C)C(=O)CC[C@@H]12 [10a, diethyl (3-benzyloxy-13α-estra-1,3,5(10)-trien-17-on-2-yl)phosphonate] | 64 ± 3 | 200 ± 20 | 85 ± 7 | – | – | –
4 | C[C@@]12CC[C@@H]3c4ccc(OCc5ccccc5)cc4CC[C@H]3[C@@H]1CCC2=O [13αE1OBn, reference compound] | – | – | – | – | 1700 ± 900 | –
5 | C[C@@]12CC[C@@H]3c4cc(P(=O)(c5ccccc5)c5ccccc5)c(O)cc4CC[C@H]3[C@@H]1CCC2=O [9b, (3-hydroxy-13α-estra-1,3,5(10)-trien-17-on-2-yl)diphenylphosphine oxide] | – | 2600 ± 200 | 77 ± 10 | – | – | 180 ± 60
6 | CCOP(=O)(OCC)c1cc2c(cc1OC)CC[C@@H]1[C@@H]2CC[C@@]2(C)C(=O)CC[C@@H]12 [8a, diethyl (3-methoxy-13α-estra-1,3,5(10)-trien-17-on-2-yl)phosphonate] | 60 ± 3 | 1800 ± 300 | 84 ± 4 | – | – | –
7 | CCOP(=O)(OCC)c1c(OC)ccc2c1CC[C@@H]1[C@@H]2CC[C@@]2(C)C(=O)CC[C@@H]12 [11a, diethyl (3-methoxy-13α-estra-1,3,5(10)-trien-17-on-4-yl)phosphonate] | 100 ± 5 | 2800 ± 1500 | 93 ± 7 | – | – | –
8 | CCOP(=O)(OCC)c1cc2c(cc1O)CC[C@@H]1[C@@H]2CC[C@@]2(C)C(=O)CC[C@@H]12 [9a, diethyl (3-hydroxy-13α-estra-1,3,5(10)-trien-17-on-2-yl)phosphonate] | – | 2100 ± 200 | 97 ± 5 | 1500 ± 300 | – | –
9 | COc1ccc2c(c1)CC[C@@H]1[C@@H]2CC[C@@]2(C)C(=O)CC[C@@H]12 [13αE1OMe, reference compound] | – | – | – | – | 3400 ± 300 | –
10 | C[C@@]12CC[C@@H]3c4ccc(OCc5ccccc5)c(P(=O)(c5ccccc5)c5ccccc5)c4CC[C@H]3[C@@H]1CCC2=O [13b, (3-benzyloxy-13α-estra-1,3,5(10)-trien-17-on-4-yl)diphenylphosphine oxide] | 75 ± 2 | 300 ± 20 | 105 ± 7 | – | – | –
11 | CCOP(=O)(OCC)c1c(OCc2ccccc2)ccc2c1CC[C@@H]1[C@@H]2CC[C@@]2(C)C(=O)CC[C@@H]12 [13a, diethyl (3-benzyloxy-13α-estra-1,3,5(10)-trien-17-on-4-yl)phosphonate] | 92 ± 3 | 300 ± 20 | 87 ± 5 | – | – | –
12 | C[C@@]12CC[C@@H]3c4ccc(O)c(P(=O)(c5ccccc5)c5ccccc5)c4CC[C@H]3[C@@H]1CCC2=O [12b, (3-hydroxy-13α-estra-1,3,5(10)-trien-17-on-4-yl)diphenylphosphine oxide] | 100 ± 5 | > 50000 | 93 ± 4 | – | – | –
13 | COc1ccc2c(c1P(=O)(c1ccccc1)c1ccccc1)CC[C@@H]1[C@@H]2CC[C@@]2(C)C(=O)CC[C@@H]12 [11b, (3-methoxy-13α-estra-1,3,5(10)-trien-17-on-4-yl)diphenylphosphine oxide] | 106 ± 8 | 2500 ± 400 | 80 ± 5 | – | – | –
14 | CCOP(=O)(OCC)c1c(O)ccc2c1CC[C@@H]1[C@@H]2CC[C@@]2(C)C(=O)CC[C@@H]12 [12a, diethyl (3-hydroxy-13α-estra-1,3,5(10)-trien-17-on-4-yl)phosphonate] | 84 ± 4 | 1400 ± 100 | 93 ± 6 | – | – | –
